Experimental data from US20090142337A1, “Pharmaceutical Combinations of Diazole Derivatives for Cancer Treatment” (Astex Therapeutics Limited, priority 2006, published 2009).
Blank lines part the entries; values can stand above or below the compound they belong to.

Columns and labels:
CML patients = settings: CML blast phase; cited from earlier work
[1] = test system: human tumour derived cell lines; experiment: Xenograft studies; format: in vivo, nude mice; settings: dosed orally
Excerpt: These biomarkers include suppression of phosphorylation of substrates of the cyclin dependent kinases e.g. retinoblastoma protein.

[2] = Vapour sorption/desorption analysis; format: physicochemical; settings: 0 to 90% RH stepwise, 25 °C, total upon equilibration at 90% RH
Procedure: Crystals of 4-(2,6-dichlorobenzoylamino)-1H-pyrazole-3-carboxylic acid (1-methanesulphonyl-piperidin-4-yl)-amide prepared by the recrystallisation method of Example 5 Step 8 were subjected to vapour sorption/desorption analysis in order to test for the propensity of this sample to form a hydrated state.
Approximately 20 mg of sample was placed into a wire-mesh vapour sorption balance pan and loaded into an ‘IgaSorp’ vapour sorption balance (Hiden Analytical Instruments) held at 25+/−0.1° C. The sample was then dried by maintaining a 0% humidity environment (using mass flow control apparatus) until no further weight change was recorded. Subsequently, the sample was then subjected to a ramping profile from 0-90% relative humidity (% RH) at 10% RH increments, maintaining the sample at each step until equilibration had been attained (99.5% step completion).
Upon reaching equilibration, the % RH within the apparatus was ramped to the next step and the equilibration procedure repeated. After completion of the sorption cycle, the sample was then dried using the same procedure. The weight change during the sorption/desorption cycles was then monitored, allowing for the hygroscopic nature of the sample to be determined.

[3] = Determination of oral bioavailability; format: in vivo, balb/c mice; settings: mice, oral route (5 mg/kg PO vs 1 mg/kg IV)
Procedure: The oral bioavailability of the compounds for use in the combinations of the invention may be determined as follows.
The test compound is administered as a solution both I.V. and orally to balb/c mice at the following dose level and dose formulations; • 1 mg/kg IV formulated in 10% DMSO/90% (2-hydroxypropyl)-β-cyclodextrin (25% w/v); and • 5 mg/kg PO formulated in 10% DMSO/20% water/70% PEG200.
At various time points after dosing, blood samples are taken in heparinised tubes and the plasma fraction is collected for analysis. The analysis is undertaken by LC-MS/MS after protein precipitation and the samples are quantified by comparison with a standard calibration line constructed for the test compound. The area under the curve (AUC) is calculated from the plasma level vs time profile by standard methods. The oral bioavailability as a percentage is calculated from the following equation: […]

HCT-116 cell line = experiment: Anti-proliferative activity (Alamar Blue assay); format: cell-based, human; settings: for IC50: Homo sapiens, HCT-116, read-out: HCT-116 cell proliferation IC50
Procedure: The anti-proliferative activities of compounds for use in the combinations of the invention can be determined by measuring the ability of the compounds to inhibition of cell growth in a number of cell lines. […] The method is based on the ability of viable cells to reduce resazurin to its fluorescent product resorufin. […] The number of viable cells is determined by Alamar Blue assay as before. Cell lines can be obtained from the ECACC (European Collection of cell Cultures).

PKG = settings: cited from earlier work
PKA = PKA (Homo sapiens, UniProt P17612); settings: cited from earlier work
OVCAR-3 tumour cells = settings: concentrations of 50 and 100 microM; cited from earlier work
CDK2/CyclinA = CDK2/CyclinA (Homo sapiens, UniProt P24941); experiment: Activated CDK2/CyclinA kinase inhibitory activity assay; format: biochemical
Procedure: The reaction is allowed to proceed for 2 to 4 hours before being stopped with an excess of ortho-phosphoric acid (5 μl at 2%). γ^33P-ATP which remains unincorporated into the histone H1 is separated from phosphorylated histone H1 on a Millipore MAPH filter plate. The wells of the MAPH plate are wetted with 0.5% orthophosphoric acid, and then the results of the reaction are filtered with a Millipore vacuum filtration unit through the wells. Following filtration, the residue is washed twice with 200 μl of 0.5% orthophosphoric acid. Once the filters have dried, 20 μl of Microscint 20 scintillant is added, and then counted on a Packard Topcount for 30 seconds.

Compound: Cc1ccc(NC(=O)c2ccc(CN3CCN(C)CC3)cc2)cc1Nc1nccc(-c2cccnc2)n1 [imatinib]
- duration of remissions (CML patients): 2-6 months

Compound: CS(=O)(=O)N1CCC(NC(=O)c2n[nH]cc2NC(=O)c2c(Cl)cccc2Cl)CC1 [Example 1, 4-(2,6-dichloro-benzoylamino)-1H-pyrazole-3-carboxylic acid (1-methanesulphonyl-piperidin-4-yl)-amide]
- tumour biomarkers (phosphorylation of CDK substrates e.g. retinoblastoma protein) [1]: inhibition of the tumour biomarkers
- tumour growth in xenografts ([1]; xenografts implanted sub-cutaneously): inhibition of tumour growth
- weight increase on vapour sorption [2]: 0.24%
- bioavailability ([3]; balb/c, mouse, plasma, oral, 5 mg/kg): 40 to 50%
- oral bioavailability [3]: 30-100%
- more potent anti-proliferative effect on human colon cancer HCT-116 cell line compared to difluoro-analogue (HCT-116 cell line): 6-7 fold
- IC50 (HCT-116 cell line): 0.11 µM

Compound: O=S(=O)(NCCNCC=C(c1ccccc1)c1ccccc1)c1cccc2cnccc12 [NL-71-101]
- IC50 (PKG): 36 µM
- IC50 (PKA): 9 µM
- apoptosis in OVCAR-3 tumour cells (OVCAR-3 tumour cells): induced apoptosis

- selectivity for CDK inhibition over GSK3β (CDK2/CyclinA): ~6 fold
- IC50 (HCT-116 cell line): 0.74 µM
Compound: CS(=O)(=O)N1CCC(NC(=O)c2n[nH]cc2NC(=O)c2c(F)cccc2F)CC1 [reference compound]
